A short description of data set [1]: Phase I trial, pharmacokinetics in plasma by LC/MS during cycle 1. Here is the method: Pharmacokinetic (PK) studies were performed during cycle 1 using liquid chromatography/mass spectrometry (LC/MS) to measure both compounds in plasma. Heat shock protein 70 (Hsp70) was measured in plasma before and after treatment.
The mark [2] stands for this setting: co-administered with Compound (1) 44-525 mg/m2.

SMILES strings stand for the structures.

On to `CN(NC(=O)CC(=O)NN(C)C(=S)c1ccccc1)C(=S)c1ccccc1` [Compound (1)], for which the PK linearity entry in data set [1] (Compound (1) 44-525 mg/m2, unaffected by paclitaxel dose) is reported as “linear PK”. For the same compound, the “serious effects specifically attributable to Compound (1)” value (35 patients, 8 dose levels, with paclitaxel) is listed as “No serious effects”.

For `CC(=O)O[C@H]1C(=O)[C@@]2(C)[C@H]([C@H](OC(=O)c3ccccc3)[C@]3(O)C[C@H](OC(=O)[C@H](O)[C@@H](NC(=O)c4ccccc4)c4ccccc4)C(C)=C1C3(C)C)[C@]1(OC(C)=O)CO[C@@H]1C[C@@H]2O` [Paclitaxel, paclitaxel], in data set [1] (setting [2]), the “Paclitaxel clearance, trend with Compound (1) dose” value is listed as “significant trend toward decreasing clearance” and the “Paclitaxel terminal phase half-life, effect of Compound (1) dose” value is “without affecting the terminal phase half-life”. Also, the “Paclitaxel dose limiting toxicities” value (in vivo) was “occurred in a single patient in each of the top three dose levels”.

Source of the values: patent publication US8017654B2, “Combination cancer therapy with bis(thiohydrazide) amide compounds” (priority 2005, dated 2011).
